From ChEMBL document CHEMBL5518232, “Discovery of New Tricyclic Oxime Sampangine Derivatives as Potent Antifungal Agents for the Treatment of Cryptococcosis and Candidiasis” (J Med Chem, 2024)
In brackets after ≈: the same amount, converted by molar mass. Activity calls are given as the source filed them. The calls are words filed in the database; no cut-off is given here.

What was measured:
Candida albicans [1] = assay: Antifungal activity against Candida albicans SC5314 assessed as reduction in fungal growth incubated for 48 hrs by liquid based microdilution method; assay type: functional
Candida albicans [2] = assay: Antifungal activity against Candida albicans 0304103 assessed as reduction in fungal growth incubated for 48 hrs by liquid based microdilution method; assay type: functional
Candida tropicalis = assay: Antifungal activity against Candida tropicalis 10186 assessed as reduction in fungal growth incubated for 48 hrs by liquid based microdilution method; assay type: functional
Nakaseomyces glabratus = assay: Antifungal activity against Candida glabrata 9073 assessed as reduction in fungal growth incubated for 48 hrs by liquid based microdilution method; assay type: functional
Cryptococcus neoformans [3] = assay: Antifungal activity against Cryptococcus neoformans H99 assessed as reduction in fungal growth incubated for 72 hrs by liquid based microdilution method; assay type: functional
Cryptococcus neoformans [4] = assay: Antifungal activity against Cryptococcus neoformans ATCC 34877 assessed as reduction in fungal growth incubated for 72 hrs by liquid based microdilution method; assay type: functional
[5] = Antifungal activity against Cryptococcus gattii VGI ATCC 14116 assessed as reduction in fungal growth incubated for 72 hrs by liquid based microdilution method; assay type: functional
Candida albicans [6] = assay: Synergistic antifungal activity against Candida albicans 0304103 assessed as inhibition of fungal growth incubated for 48 hrs in presence of (Z)-8-(hydroxyimino)-3-methylthieno[3',2':4,5]benzo[1,2-d]isoxazol-4(8H)-one by checkerboard microdilution assay; assay type: functional
Candida albicans [7] = assay: Synergistic antifungal activity against Candida albicans 0304103 assessed as inhibition of fungal growth incubated for 48 hrs in presence of ((Z)-8-(methoxyimino)-3-methylthieno[3',2':4,5]benzo[1,2-d]isoxazol-4(8H)-one by checkerboard microdilution assay; assay type: functional
Candida albicans [8] = assay: Synergistic antifungal activity against Candida albicans 0304103 assessed as inhibition of fungal growth incubated for 48 hrs in presence of (Z)-8-(ethoxyimino)-3-methylthieno[3',2':4,5]benzo[1,2-d]isoxazol-4(8H)-one by checkerboard microdilution assay; assay type: functional
Candida albicans [9] = assay: Synergistic antifungal activity against Candida albicans 0304103 assessed as inhibition of fungal growth incubated for 48 hrs in presence of (Z)-8-(isopropoxyimino)-3-methylthieno[3',2':4,5]benzo[1,2-d]isoxazol-4(8H)-one by checkerboard microdilution assay; assay type: functional
Candida albicans [10] = assay: Synergistic antifungal activity against Candida albicans 0304103 assessed as inhibition of fungal growth incubated for 48 hrs in presence of (Z)-3-ethyl-8-(methoxyimino)thieno[3',2':4,5]benzo[1,2-d]isoxazol-4(8H)-one by checkerboard microdilution assay; assay type: functional
Candida albicans [11] = assay: Synergistic antifungal activity against Candida albicans 0304103 assessed as inhibition of fungal growth incubated for 48 hrs in presence of (Z)-8-(methoxyimino)-3-propylthieno[3',2':4,5]benzo[1,2-d]isoxazol-4(8H)-one by checkerboard microdilution assay; assay type: functional
Candida albicans [12] = assay: Synergistic antifungal activity against Candida albicans 0304103 assessed as inhibition of fungal growth incubated for 48 hrs in presence of (4Z,8Z)-benzo[1,2-b:4,5-b']dithiophene-4,8-dione O,O-dimethyl dioxime by checkerboard microdilution assay; assay type: functional
Candida albicans [13] = assay: Synergistic antifungal activity against Candida albicans 0304103 assessed as inhibition of fungal growth incubated for 48 hrs in presence of (Z)-8-(methoxyimino)benzo[1,2-b:4,5-b']dithiophen-4(8H)-one by checkerboard microdilution assay; assay type: functional
Candida albicans [14] = assay: Synergistic antifungal activity against Candida albicans 0304103 assessed as inhibition of fungal growth incubated for 48 hrs in presence of (Z)-9-(hydroxyimino)-3-methylnaphtho[2,3-d]isoxazol-4(9H)-one by checkerboard microdilution assay; assay type: functional
Candida albicans [15] = assay: Synergistic antifungal activity against Candida albicans 0304103 assessed as inhibition of fungal growth incubated for 48 hrs in presence of (Z)-9-(methoxyimino)-3-methylnaphtho[2,3-d]isoxazol-4(9H)-one by checkerboard microdilution assay; assay type: functional
Candida albicans [16] = assay: Synergistic antifungal activity against Candida albicans 0304103 assessed as inhibition of fungal growth incubated for 48 hrs in presence of (Z)-9-(ethoxyimino)-3-methylnaphtho[2,3-d]isoxazol-4(9H)-one by checkerboard microdilution assay; assay type: functional
Candida albicans [17] = assay: Synergistic antifungal activity against Candida albicans 0304103 assessed as inhibition of fungal growth incubated for 48 hrs in presence of (Z)-8-(methoxyimino)-3-methylbenzofuro[6,5-d]isoxazol-4(8H)-one by checkerboard microdilution assay; assay type: functional
Cryptococcus neoformans [18] = assay: Inhibition of biofilm formation in Cryptococcus neoformans H99 at 64 ug/ml incubated for 24 hrs by microplate based analysis relative to control; assay type: functional
Candida albicans [19] = assay: Inhibition of biofilm formation in Candida albicans 0304103 at 2 ug/ml incubated for 32 hrs by microplate based analysis; assay type: functional, organism-based; conditions: dose 2.0 µg/ml
Candida albicans [20] = assay: Inhibition of biofilm formation in Candida albicans 0304103 at 8 ug/ml incubated for 24 hrs in presence of (Z)-8-(methoxyimino)-3-methylthieno[3',2':4,5]benzo[1,2-d]isoxazol-4(8H)-one by microplate based analysis relative to control; assay type: functional
Candida albicans [21] = assay: Antifungal activity against Candida albicans 0304103 assessed as downregulation of TEC1 expression at 8 ug/ml incubated for 24 hrs in presence of (Z)-8-(methoxyimino)-3-methylthieno[3',2':4,5]benzo[1,2-d]isoxazol-4(8H)-one by RT-PCR analysis; assay type: functional, organism-based; conditions: dose 8.0 µg/ml
Candida albicans [22] = assay: Antifungal activity against Candida albicans 0304103 assessed as downregulation of RLM1 expression at 8 ug/ml incubated for 24 hrs in presence of (Z)-8-(methoxyimino)-3-methylthieno[3',2':4,5]benzo[1,2-d]isoxazol-4(8H)-one by RT-PCR analysis; assay type: functional, organism-based; conditions: dose 8.0 µg/ml
Candida albicans [23] = assay: Antifungal activity against Candida albicans 0304103 assessed as downregulation of APH5 expression at 8 ug/ml incubated for 24 hrs in presence of (Z)-8-(methoxyimino)-3-methylthieno[3',2':4,5]benzo[1,2-d]isoxazol-4(8H)-one by RT-PCR analysis; assay type: functional, organism-based; conditions: dose 8.0 µg/ml
Candida albicans [24] = assay: Antifungal activity against Candida albicans 0304103 assessed as downregulation of GCA1 expression at 8 ug/ml incubated for 24 hrs in presence of (Z)-8-(methoxyimino)-3-methylthieno[3',2':4,5]benzo[1,2-d]isoxazol-4(8H)-one by RT-PCR analysis; assay type: functional, organism-based; conditions: dose 8.0 µg/ml
Candida albicans [25] = assay: Antifungal activity against Candida albicans 0304103 assessed as downregulation of GCA2 expression at 8 ug/ml incubated for 24 hrs in presence of (Z)-8-(methoxyimino)-3-methylthieno[3',2':4,5]benzo[1,2-d]isoxazol-4(8H)-one by RT-PCR analysis; assay type: functional, organism-based; conditions: dose 8.0 µg/ml
Candida albicans [26] = assay: Antifungal activity against Candida albicans 0304103 assessed as downregulation of CDR1 expression at 8 ug/ml incubated for 24 hrs in presence of (Z)-8-(methoxyimino)-3-methylthieno[3',2':4,5]benzo[1,2-d]isoxazol-4(8H)-one by RT-PCR analysis; assay type: functional, organism-based; conditions: dose 8.0 µg/ml
Candida albicans [27] = assay: Antifungal activity against Candida albicans 0304103 assessed as downregulation of ERG11 expression at 8 ug/ml incubated for 24 hrs in presence of (Z)-8-(methoxyimino)-3-methylthieno[3',2':4,5]benzo[1,2-d]isoxazol-4(8H)-one by RT-PCR analysis; assay type: functional, organism-based; conditions: dose 8.0 µg/ml
Candida albicans [28] = assay: Antifungal activity against Candida albicans 0304103 assessed as reversal of ERG11 expression by measuring fold change at 8 ug/ml incubated for 24 hrs in presence of (Z)-8-(methoxyimino)-3-methylthieno[3',2':4,5]benzo[1,2-d]isoxazol-4(8H)-one by RT-PCR analysis (reference value: 8.8); assay type: functional; conditions: dose 8 µg/ml
Candida albicans [29] = assay: In vivo antifungal activity against Candida albicans 0304103 infected in […] ICR mouse model assessed as reduction in fungal burden in kidney at 5 mg/kg, ip measured for 5 days in presence of (Z)-8-(methoxyimino)-3-methylthieno[3',2':4,5]benzo[1,2-d]isoxazol-4(8H)-one (reference value: 7.37 log10CFU/g); assay type: functional; conditions: time 5 day
Candida albicans [30] = assay: In vivo antifungal activity against Candida albicans SC5314 infected in […] ICR mouse model assessed as reduction in fungal burden in kidney at 0.5 mg/kg, ip measured for 5 days in presence of (Z)-8-(methoxyimino)-3-methylthieno[3',2':4,5]benzo[1,2-d]isoxazol-4(8H)-one; assay type: functional; conditions: time 5 day

SMILES: OC(Cn1cncn1)(Cn1cncn1)c1ccc(F)cc1F [FLUCONAZOLE]
- MIC80 (Candida albicans [1]): 0.5 µg/mL (≈ 1.63 µM)
- MIC80 (Candida albicans [2]): > 64 µg/mL
- MIC80 (Candida tropicalis): > 64 µg/mL
- MIC80 (Nakaseomyces glabratus): 32 µg/mL (≈ 104 µM)
- MIC80 (Cryptococcus neoformans [3]): 2 µg/mL (≈ 6.53 µM)
- MIC80 (Cryptococcus neoformans [4]): 1 µg/mL (≈ 3.27 µM)
- MIC80 [5]: 1 µg/mL (≈ 3.27 µM)
- MIC80 (Candida albicans [6]): 4 µg/mL
- MIC80 (Candida albicans [7]): 1 µg/mL
- MIC80 (Candida albicans [8]): 1 µg/mL
- MIC80 (Candida albicans [9]): 2 µg/mL
- MIC80 (Candida albicans [10]): 1 µg/mL
- MIC80 (Candida albicans [11]): 8 µg/mL
- MIC80 (Candida albicans [12]): > 64 µg/mL
- MIC80 (Candida albicans [13]): 1 µg/mL
- MIC80 (Candida albicans [14]): 2 µg/mL
- MIC80 (Candida albicans [15]): 1 µg/mL
- MIC80 (Candida albicans [16]): 0.5 µg/mL
- MIC80 (Candida albicans [17]): 2 µg/mL
- inhibition at 64 µg/mL (Cryptococcus neoformans [18]): 80%
- inhibition (Candida albicans [19]): inactive
- inhibition at 8 µg/mL (Candida albicans [20]): 50%
- Activity (Candida albicans [21]): Active
- Activity (Candida albicans [22]): Active
- Activity (Candida albicans [23]): Active
- Activity (Candida albicans [24]): Active
- Activity (Candida albicans [25]): Active
- Activity (Candida albicans [26]): Active
- Activity (Candida albicans [27]): Active
- fold change (FC) (Candida albicans [28]): 0.8
- Activity (Candida albicans [29]): 5.31 log10CFU/g
- Activity (Candida albicans [30]): 5.02 log10CFU/g
